Experimental findings from US20250340516A1, “Isoquinolinones as Modulators of POLRMT” (Pretzel Therapeutics, Inc., priority 2024, published 2025) are described below.

SMILES strings stand for the structures.

One may read the IC50 as the concentration needed to halve the response being measured.

The assay has as its target POLRMT (Homo sapiens (Human), UniProt O00411). Put plainly: homogeneous TR-FRET assay of POLRMT inhibition (mitochondrial transcription, 407 bp RNA product). In kind it is biochemical. The settings on record: 7.5 nM POLRMT, 15 nM TFB2M, 30 nM TFAM, 0.5 nM DNA template, 500 μM NTPs, 37° C., 60 minutes, * = aggregation of data sets, read-out: IC50 values for isoquinolinone compounds. On the technique in general: TR-FRET usually uses a lanthanide donor and a delayed reading to cut background.

POLRMT, sequence (O00411 42-1230): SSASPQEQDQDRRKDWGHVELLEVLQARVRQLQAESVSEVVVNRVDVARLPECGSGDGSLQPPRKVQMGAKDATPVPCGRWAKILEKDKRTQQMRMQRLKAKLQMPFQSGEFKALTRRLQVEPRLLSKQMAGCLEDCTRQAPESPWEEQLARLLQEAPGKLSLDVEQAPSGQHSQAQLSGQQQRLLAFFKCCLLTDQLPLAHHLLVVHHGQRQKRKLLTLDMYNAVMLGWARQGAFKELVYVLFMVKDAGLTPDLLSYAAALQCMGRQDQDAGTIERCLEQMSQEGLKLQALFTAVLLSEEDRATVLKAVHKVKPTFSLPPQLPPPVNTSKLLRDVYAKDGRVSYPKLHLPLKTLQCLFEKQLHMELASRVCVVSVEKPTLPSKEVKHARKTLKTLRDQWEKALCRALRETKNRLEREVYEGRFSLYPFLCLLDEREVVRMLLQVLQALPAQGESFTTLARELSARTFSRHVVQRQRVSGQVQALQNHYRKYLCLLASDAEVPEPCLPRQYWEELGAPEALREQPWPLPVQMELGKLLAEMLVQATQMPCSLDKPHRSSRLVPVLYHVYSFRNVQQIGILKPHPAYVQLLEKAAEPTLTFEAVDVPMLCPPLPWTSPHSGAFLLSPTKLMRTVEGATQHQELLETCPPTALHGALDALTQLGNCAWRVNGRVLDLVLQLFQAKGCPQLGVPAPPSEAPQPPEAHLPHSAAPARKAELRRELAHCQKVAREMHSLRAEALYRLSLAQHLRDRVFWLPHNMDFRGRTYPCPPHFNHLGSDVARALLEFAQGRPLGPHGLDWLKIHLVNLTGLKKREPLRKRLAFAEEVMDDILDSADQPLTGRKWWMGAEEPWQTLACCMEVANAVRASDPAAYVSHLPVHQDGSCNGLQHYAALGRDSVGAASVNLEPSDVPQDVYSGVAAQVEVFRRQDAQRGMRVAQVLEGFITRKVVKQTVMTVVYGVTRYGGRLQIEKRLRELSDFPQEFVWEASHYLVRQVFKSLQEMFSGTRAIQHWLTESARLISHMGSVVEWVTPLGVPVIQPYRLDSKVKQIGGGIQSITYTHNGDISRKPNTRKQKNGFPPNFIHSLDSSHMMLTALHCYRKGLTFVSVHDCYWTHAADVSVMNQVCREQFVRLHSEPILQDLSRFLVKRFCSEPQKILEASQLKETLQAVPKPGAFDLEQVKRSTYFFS

In the case of `Cc1ccccc1-c1c[nH]c(=O)c2cc(O[C@H](C)C(=O)N[C@@H](C)C(N)=O)ccc12` [Example 73, (R)-N-((S)-1-amino-1-oxopropan-2-yl)-2-((1-oxo-4-(o-tolyl)-1,2-dihydroisoquinolin-7-yl)oxy)propanamide], the IC50 came to 100 nM.

As to `[2H]C([2H])([2H])c1ccccc1-c1c[nH]c(=O)c2cc(O[C@H](C)C(=O)N3CCN(C(N)=O)CC3)ccc12` [Example 74, (R)-4-(2-((4-(2-(methyl-d3)phenyl)-1-oxo-1,2-dihydroisoquinolin-7-yl)oxy)propanoyl)piperazine-1-carboxamide], the IC50 came to 80 nM.

For the compound `CCNC1CCN(C(=O)[C@@H](C)Oc2ccc3c(-c4ccccc4C)c[nH]c(=O)c3c2)CC1` [Example 77, (R)-7-((1-(4-(ethylamino)piperidin-1-yl)-1-oxopropan-2-yl)oxy)-4-(o-tolyl)isoquinolin-1(2H)-one], the IC50 was 1000 nM.

`Cc1ccccc1-c1c[nH]c(=O)c2cc(O[C@H](C)C(=O)N(C)CC(=O)O)ccc12` [Example 78, (R)-N-methyl-N-(2-((1-oxo-4-(o-tolyl)-1,2-dihydroisoquinolin-7-yl)oxy)propanoyl)glycine]: the IC50 was determined as 1000 nM.
